According to US20090215028A1, “Methods and Compositions for Determining Anti-HIV Drug Susceptibility and Replication Capacity of HIV” (priority 2005, published 2009):

Columns and labels:
Type in all cases: cell-based
[1] = system: HIV mutants comprising site-directed mutations in integrase; assay: Anti-HIV drug susceptibility assay (luciferase test vectors, 293 cells), site-directed integrase mutants; conditions: FIG. 2
Source text: A retroviral vector designed to measure antiretroviral drug susceptibility was constructed by using an infectious molecular clone of HIV-1. The vector, referred to herein as an indicator gene viral vector (IGVV), is replication defective and contains a luciferase expression cassette inserted within a deleted region of the envelope (env) gene. The IGVV is described in U.S. Pat. No. 5,837,464 (International Publication Number WO 97/27319) which is hereby incorporated by reference in its entirety. This retroviral vector was further modified to allow insertion of either the entire pol gene (POL) or the portion of pol encoding amino acids 319-440 of reverse transcriptase, the RNase H portion of reverse transcriptase, and integrase (RHIN) by engineering an Xho1 restriction enzyme recognition site into vif. Prior to doing this, an Xho 1 site in nef was deleted. Test vectors (TVs) were constructed by incorporating amplified POL or RHIN into the IGVV by using ApaI and Xho1 or PinAI and Xho1 restriction sites respectively. TVs were prepared as libraries (pools) in order to capture and preserve the pol or RHN sequence heterogeneity of the virus in the patient. […]
Susceptibility tests were carried out with the TV libraries by using viral particles comprising the RTV libraries to infect a host cell in which the expression of the indicator gene is measured. The amount of indicator gene (luciferase) activity detected in infected cells is used as a direct measure of “infectivity,” i.e., the ability of the virus to complete a single round of replication. Thus, drug resistance or sensitivity can be determined by plotting the amount of luciferase activity produced by patient derived viruses in the presence of varying concentrations of the antiviral drug. By identifying the concentration of drug at which luciferase activity is half-maximum, the IC50 of the virus from which patient-derived segment(s) were obtained for the antiretroviral agent can be determined. […]

[2] = system: HIV isolated from treatment-naïve patients (RHIN segment); assay: Anti-HIV drug susceptibility assay (luciferase test vectors, 293 cells), patient-derived RHIN segment
Source text: (§1) Patient-derived segment(s) corresponding to either the entire pol gene, encoding HIV protease, reverse transcriptase, integrase, and RNAse H (hereinafter “POL”), or the portion of pol encoding amino acids 319-440 of reverse transcriptase, integrase, and RNAse H (hereinafter “RHIN”), were amplified by the reverse transcription-polymerase chain reaction method (RT-PCR) using viral RNA isolated from viral particles present in the plasma or serum of HIV-infected individuals as follows. Virus was pelleted by centrifugation at 20,400×g for 60 min from plasma (typically, 1 ml) prepared from blood samples collected in evacuated tubes containing either EDTA, acid-citrate dextrose, or heparin as an anticoagulant. Virus particles were disrupted by resuspending the pellets in 200 μl of lysis buffer (4 M guanidine thiocyanate, 0.1 M Tris HCl [pH 8.0], 0.5% sodium lauryl sarcosine, 1% dithiothreitol). RNA was extracted from viral lysates by using oligo(dT) linked to magnetic beads (Dynal, Oslo, Norway). Reverse transcription was performed with Superscript III (Invitrogen) at 50 degrees for 1 hour using primer 1.
From the resultant cDNA either POL or RHIN sequences were amplified using the Advantage High Fidelity PCR kit (BD Biosciences; Clontech). POL amplification products are made using forward Primer 3 containing an ApaI site and reverse Primer 4 containing a Xho 1 site. RHIN amplification products are made using forward Primer 2 containing a PINA1 site and reverse Primer 4 containing a Xho 1 site.
A retroviral vector designed to measure antiretroviral drug susceptibility was constructed by using an infectious molecular clone of HIV-1. The vector, referred to herein as an indicator gene viral vector (IGVV), is replication defective and contains a luciferase expression cassette inserted within a deleted region of the envelope (env) gene. The IGVV is described in U.S. Pat. No. 5,837,464 (International Publication Number WO 97/27319) which is hereby incorporated by reference in its entirety. […]

[3] = system: HIV isolated from treatment-naïve patients (POL segment); assay: Anti-HIV drug susceptibility assay (luciferase test vectors, 293 cells), patient-derived POL segment; conditions: 30 clinical isolates from treatment-naïve patients, FIG. 5
Source text: as §1
From the resultant cDNA either POL or RHIN sequences were amplified using the Advantage High Fidelity PCR kit (BD Biosciences; Clontech). POL amplification products are made using forward Primer 3 containing an ApaI site and reverse Primer 4 containing a Xho 1 site. […]

[4] = 30 clinical isolates from treatment-naïve patients, RHIN segment, FIG. 5

## O=C(NCc1ccc(F)cc1)c1nc(N2CCCCS2(=O)=O)c2cccnc2c1O [L-870,810]
[1]; site-directed integrase mutant N155S
  susceptibility (IC50 relative to HIV strain IIIB): reduced susceptibility
[1]; site-directed integrase mutant V72I/F121Y/T125K
  susceptibility (IC50 relative to HIV strain IIIB): reduced susceptibility
[1]; site-directed integrase mutant
  susceptibility (IC50 relative to HIV strain IIIB): reduced susceptibility
[2]; [4]
  mean fold change (FC) in IC50: 0.86
  median fold change (FC) in IC50: 0.82
[2]; RHIN sequences from 45 treatment-naïve patient viruses, FIG. 4
  mean fold change (FC) in IC50 relative to HIV strain IIIb: 0.83
[3]
  mean fold change (FC) in IC50: 0.85
  median fold change (FC) in IC50: 0.85
